IC50 data for two compounds are collected here from publication PMC4289655 (Antiviral Research, 2014).

The experiment has as its target T1, UL98 (CMV alkaline nuclease) (Human herpesvirus 5 strain AD169, UniProt P16789).
T1 sequence (P16789 1-584): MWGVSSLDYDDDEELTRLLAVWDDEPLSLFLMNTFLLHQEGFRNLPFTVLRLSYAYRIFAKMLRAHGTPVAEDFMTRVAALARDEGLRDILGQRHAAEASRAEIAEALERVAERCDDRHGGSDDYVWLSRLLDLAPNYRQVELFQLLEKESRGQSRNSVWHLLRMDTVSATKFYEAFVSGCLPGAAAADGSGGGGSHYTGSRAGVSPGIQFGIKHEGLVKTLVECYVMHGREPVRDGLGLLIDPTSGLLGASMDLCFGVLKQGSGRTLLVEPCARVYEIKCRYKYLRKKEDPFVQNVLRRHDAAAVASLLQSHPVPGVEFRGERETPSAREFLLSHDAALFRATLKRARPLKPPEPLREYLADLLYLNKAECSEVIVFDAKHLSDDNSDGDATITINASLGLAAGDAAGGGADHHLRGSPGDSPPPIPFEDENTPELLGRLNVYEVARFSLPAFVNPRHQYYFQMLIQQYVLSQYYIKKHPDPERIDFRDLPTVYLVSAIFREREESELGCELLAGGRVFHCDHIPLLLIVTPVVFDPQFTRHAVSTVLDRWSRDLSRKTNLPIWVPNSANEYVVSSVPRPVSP
Briefly: TCA-soluble […] release from labeled E. coli duplex DNA. It is filed as biochemical.

On to `Cc1cc(C)c(Nc2cc(S(=O)(=O)O)c(N)c3c2C(=O)c2ccccc2C3=O)c(C)c1` [atanyl blue PRL], for which it took 4.5 ± 0.7 µM to reach half-maximal inhibition (IC50).
Compound `CC(=O)Nc1ccc(Nc2cc(S(=O)(=O)O)c(N)c3c2C(=O)c2ccccc2C3=O)cc1` [acid blue 40] yielded a half-inhibitory concentration (IC50) of 99 µM.

By IC50 is commonly meant the concentration that gives 50% inhibition. A lower IC50 goes with greater potency in that assay.
